# Reference: PMC4809498, “Artonin E Induces Apoptosis via Mitochondrial Dysregulation in SKOV-3 Ovarian Cancer Cells” (PLoS ONE, 2016)
# Tests used:
# [1] = tested on: SKOV-3 cells; test: MTT cell viability assay, SKOV-3; format: cell-based, human; details: SKOV-3, MTT; for IC50: Homo sapiens
# Experimental: (§1) Metastatic ovarian adenocarcinoma (SKOV-3) and normal Chinese hamster ovary (CHO) cell lines were originally obtained from the American Type Culture Collection (ATCC; Manassas, VA). SKOV-3 cells were cultured in McCoy’s 5A medium and CHO cells were cultured in F12K medium. A human periodontal ligament fibroblast cell line was purchased from Lonza, USA and maintained in stroma cell basal medium. T1074 (normal immortalized human ovarian surface epithelial cell line) was originally purchased from Applied Biological Materials (abm®) Canada and cultured in Prigrow 1 medium.
# (§2) The inhibitory effects of artonin E and two positive controls paclitaxel and carboplatin were examined by MTT assay. Cells at a density of 5×10^3cells/well were placed in a 96-well plate and left for 24 h to attach. The attached cells were exposed to artonin E, paclitaxel, and carboplatin at different concentrations and incubated for 24, 48, and 72 h. Subsequently, 20 μL of 5 mg/mL MTT solution was added after drug treatment and the resulting mixture was incubated for 4 h to form purple formazan. Afterward, 100 μL of dimethyl sulfoxide (DMSO) was transferred into each well to dissolve the purple formazan, and results were measured using a microplate reader (Tecan Infinite M 200 PRO, Männedorf, Switzerland) at an absorbance of 570 nm. The half-maximal concentrations that caused cell growth inhibition (IC50 values) were obtained from the MTT viability growth curve.
# [2] = tested on: T1074 cells; test: MTT cell viability assay, T1074; format: cell-based, human; details: for IC50: Homo sapiens
# Experimental: as §1, §2
"IC50 ([1]; SK-OV-3, 24 h, 24 h treatment) [µg/mL]","IC50 ([1]; SK-OV-3, 48 h, 48 h treatment) [µg/mL]","IC50 ([1]; SK-OV-3, 72 h, 72 h treatment) [µg/mL]",Compound,IC50 values ([1]; 24 h treatment) [µg/mL],IC50 values ([1]; 48 h treatment) [µg/mL],IC50 values ([1]; 72 h treatment) [µg/mL],IC50 values ([2]; 24 h treatment) [µg/mL],IC50 values ([2]; 48 h treatment) [µg/mL],IC50 values ([2]; 72 h treatment) [µg/mL],IC50 ([2]; 24 h treatment) [µg/mL],IC50 ([2]; 48 h treatment) [µg/mL],IC50 ([2]; 72 h treatment) [µg/mL]
,,,"N.N.O=C([O-])C1(C(=O)[O-])CCC1.[Pt+2] [Carboplatin, carboplatin]",15.1 ± 0.36,10.5 ± 0.5,7.2 ± 0.25,45.6 ± 0.57,25.8 ± 0.28,10.8 ± 0.7,,,
4.6 ± 0.28,2.5 ± 0.2,0.8 ± 0.2,"CC(=O)O[C@H]1C(=O)[C@@]2(C)[C@H]([C@H](OC(=O)c3ccccc3)[C@]3(O)C[C@H](OC(=O)[C@H](O)[C@@H](NC(=O)c4ccccc4)c4ccccc4)C(C)=C1C3(C)C)[C@]1(OC(C)=O)CO[C@@H]1C[C@@H]2O [Paclitaxel, paclitaxel]",,,,,,,> 50,49.3 ± 0.76,30.5 ± 0.5
